Measured values published in patent publication US20160367497A1, “METHODS AND COMPOSITIONS FOR TREATING NEUROPATHIES” (Washington University, priority 2007, published 2016).

What was measured:
[1] = system: DRG neurons; experiment: axonal injury of DRG neurons after hypoxia and reoxygenation; format: cell-based; details: preincubation 45 min or lentiviral expression; 0.1% O2 8 or 16 hrs, 20 hrs reoxygenation
Protocol: FIG. 18 illustrates that activation of AMPK protects axons while inhibition of AMPK function enhances axonal injury during oxygen deprivation.
To examine whether AMPK activation prior to hypoxic stress protects axons from injury, either constitutively active AMPK (CaAMPK) was expressed in DRG neurons, or neurons were preincubated with the AMPK activator AICAR for 45 min prior to hypoxia. […] Thus, treatments that increase AMPK activity (e.g. resveratrol, AICAR) can block the axonal damage and are neuroprotective.

[2] = system: neuro2A cells; experiment: Neuro2a cell proliferation, Ki67 immunocytochemistry; format: cell-based; details: 0.2% fetal calf serum; AICAR 1 mM or resveratrol 10 μM; 24 h after plating; DMSO controls 50%
Protocol: (§1) Neuro2a cells are a widely used as in vitro model of neuronal differentiation. These cells cease to proliferate and begin to differentiate, as evidenced by neurite outgrowth, in response to serum starvation, retinoic acid, or growth factors like neurotrophins and GDNF family ligands. […] Neuro2a cells grown under serum starvation conditions (0.2% fetal calf serum) were treated with AICAR (1 mM) or resveratrol (10 μM).

[3] = system: neuro2A cells; experiment: neurite outgrowth in Neuro2a cells; format: cell-based; details: 0.2% FCS; resveratrol 10 μM or AICAR 1 mM
Protocol: FIG. 11A-D illustrates the resveratrol and AICAR stimulation of neurite outgrowth in Neuro2a cells. Neuro2a cells were switched to serum-starvation medium (medium containing 0.2% FCS) and treated with DMSO (vehicle control), resveratrol (10 μM) or AICAR (1 mM). (A) Serum deprivation of Neuro2a cells results in growth of short neurites that increase in length over 72 h. (B) Resveratrol induced rapid neurite outgrowth resulting in elaborate neurite network formation by 48 h. (C) AICAR stimulated extensive neurite outgrowth similar to that observed with resveratrol. (D).
FIG. 12A-M illustrates the dependency of resveratrol-induced neurite outgrowth and mitochondrial biogenesis on AMPK. Neuro2a cells were infected with lentivirus expressing GFP only (FUGW, control), dominant negative AMPK (dnAMPK) or constitutively active AMPK (caAMPK). Three days later cells were shifted to serum-starvation medium containing DMSO (control) or resveratrol (10 μM). In addition, uninfected Neuro2a cells in serum-starvation medium were treated with resveratrol alone, the AMPK inhibitor Compound C (CC, Biomol International L.P. (Plymouth Meeting, Pa.)) (10 μM) alone or with resveratrol and CC together. Images of the cultures captured in bright field and green fluorescence were overlaid to visualize neurite outgrowth. […] Neurite length in cells treated with caAMPK+resveratrol is also shown (G). […] Values were normalized to the 18S transcript. Data shown is representative of two independent experiments.
(§2) Cell culture and Reagents. Neuro2 cells obtained from ATCC were grown in MEM with 1.5 g/L sodium bicarbonate, 0.1 mM nonessential amino acids, 0.1 mM sodium pyruvate, 2 mM L-glutamine with 10% FCS. For differentiation, cells were switched to serum-starvation medium (containing 0.2% FCS). For neurite outgrowth measurements, experiments were done in quadruplicate and 100 neurites per well were randomly measured using the Metamorph software. Dorsal root ganglia sensory and cortical neurons were established from E13.5 mouse embryos, maintained in neurobasal medium supplemented with B27 (and NGF for DRG neurons) and infected with lentiviruses as described (Araki et al., 2004, Science 305:1010-1013; Hawley et al., 2005, Cell Metab 2:21-23). Resveratrol was a gift from Sirtris Pharmaceuticals (Cambridge Mass.) and AICAR was obtained from Toronto Research (North York, Canada). Splitomycin and Compound C were purchased from Biomol (Plymouth Meeting, Pa.) and Calbiochem (San Diego, Calif.). Sirtinol and nicotinamide were purchased from Sigma (Saint Louis, Mo.)
as §1
Since resveratrol activated AMPK and altered the differentiation of Neuro2a cells, we next asked whether AMPK activity was required for resveratrol-induced neurite outgrowth. To address this issue, we infected Neuro2a cells with lentivirus expressing either GFP alone (FUGW-control) or dominant negative AMPK (dnAMPK). After 3 days growth to allow robust lentiviral transgene expression, the medium was replaced with serum starvation medium. […] Resveratrol-induced neurite outgrowth was reduced in the presence of the AMPK pharmacological inhibitor Compound C (CC 10 μM) further supporting the importance of AMPK activity for resveratrol-induced neurite outgrowth.

[4] = system: neuro2A cells; experiment: survival of Neuro2A cells in nutrient-deprived conditions; format: cell-based; details: regardless of the FCS concentration (10% or 0.2%)
Protocol: When Neuro2A cells are grown in culture in presence of 10% FCS, cells proliferate and ultimately die if cells are not passaged. If grown in the presence of 0.2% FCS, neuro2A cells differentiate and project neurites but ultimately die within one week.

[5] = system: acetyl Co-A carboxylase (ACC); experiment: ACC phosphorylation in Neuro2a cells (phospho-specific western blot); format: cell-based; details: resveratrol 10 μM or AICAR 1 mM; all time points to 72 hr
Protocol: (§3) FIG. 10A-D illustrates resveratrol activation of AMP kinase in Neuro2a cells. Neuro2a cells were switched to serum-starvation medium (medium containing 0.2% FCS) and treated with DMSO (vehicle control), resveratrol (10 μM) or 5-aminoimidazole-4-carboxamide-1-β-D-ribofuranoside (AICAR) (1 mM). […] Very low levels of phosphorylated AMPK and ACC were detected in DMSO treated control cells at all time points tested. (C) Densitometric analysis of changes in phosphorylated AMPK and (D) phosphorylated ACC under different conditions is shown.
Plasmids and viruses. […] Quantitative RT-PCR analysis was performed using Sybr-Green methodology on a model 7700 instrument (Applied Biosystems) as previously described (Araki et al., 2004, Science 305:1010-1013). […]
To explore the role of polyphenols, in particular, of resveratrol, we tested whether resveratrol altered the activity of AMPK in neuronal cells. […] To confirm that AMPK activation by resveratrol results in typical AMPK-mediated downstream responses, we monitored phosphorylation of ACC (acetyl Co-A carboxylase), a primary target of activated AMPK. […] To examine a potential mechanism of resveratrol-mediated AMPK activation, we measured cellular ATP levels as a decreased ATP:AMP ratio increases the phosphorylation of AMPK. […]

[6] = system: AMPK; experiment: AMPK phosphorylation in Neuro2a cells (phospho-specific western blot); format: cell-based; details: resveratrol 10 μM or AICAR 1 mM; 2 h up to 72 h
Protocol: as §3, §2
Plasmids and viruses. The dominant negative (dnAMPK) and constitutively active (caAMPK) plasmids were gifts from Russell Jones (University of Pennsylvania, Philadelphia Pa.), and pCXN-Cre was a gift of Inder Verma (Salk Institute, San Diego, Calif.). All constructs were subcloned into the lentiviral shuttle vector FCIV and verified by nucleotide sequence analysis. Viruses were prepared as previously described (Araki et al., 2004, Science 305:1010-1013). Protein and mRNA analysis. Immunoprecipitations and western blot analysis were performed by standard methods using antibodies directed against total AMPK, phosphorylated AMPK, total ACC or phosphorylated ACC that were obtained from Cell Signaling Technology (Beverley, Mass.). The phospho-AMPK antibody detects endogenous AMPK α1 and α2 when phosphorylated at threonine 172. The LKB1 antibody was purchased from Upstate (Lake Placid, N.Y.). Quantitative RT-PCR analysis was performed using Sybr-Green methodology on a model 7700 instrument (Applied Biosystems) as previously described (Araki et al., 2004, Science 305:1010-1013). Primer sequences were those used in previous studies (Motoshima, et al., 2006, J Physiol 574:63-71).
To explore the role of polyphenols, in particular, of resveratrol, we tested whether resveratrol altered the activity of AMPK in neuronal cells. Neuro2a neuroblastoma cells were treated with resveratrol (10 μM) and AMPK activation was examined using phospho-AMPK specific antibodies. […] To confirm that AMPK activation by resveratrol results in typical AMPK-mediated downstream responses, we monitored phosphorylation of ACC (acetyl Co-A carboxylase), a primary target of activated AMPK. […] To examine a potential mechanism of resveratrol-mediated AMPK activation, we measured cellular ATP levels as a decreased ATP:AMP ratio increases the phosphorylation of AMPK. ATP levels were monitored using a luciferase-based assay in neuro2A cells treated with resveratrol or Oligomycin, an inhibitor of mitochondrial oxidative phosphorylation and therefore ATP production. While the ATP concentration dropped from 5.874 μM in DMSO-treated cells (control) to 0.976 μM in Oligomycin treated cells within 2 hr, the ATP concentration in resveratrol-treated Neuro2a cells was not altered from control either at 2 hr (6.33 μM) or 24 hr (6.42 μM).

[7] = system: Nrk2; experiment: NAD synthesis enzyme mRNA in rotenone-treated DRG neurons (qRT-PCR); format: cell-based, rat; details: 0.1 μM and 1 μM, 24 hours
Protocol: FIG. 6A-B illustrates expression analysis of NAD biosynthetic enzymes in mammal showing (A) NAD biosynthesis enzyme mRNA levels after 1, 3, 7, and 14 days after nerve transection in rat DRG were determined by qRT-PCR in which the expression level was normalized to glyceraldehydes-3-phosphate dehydrogenase expression in each sample and is indicated relative to the expression level in non-axotomized DRG; (B) neurite degeneration introduced by incubation DRG in 1 or 0.1 μM rotenone for indicated time and NAD synthesis enzyme mRNA levels were determined by qRT-PCR as described in the text.
Real-time quantitative reverse transcription-PCR analysis. All the surgical procedures were performed according to National Institute of Health guidelines for care and use of laboratory animals at Washington University. […] Quantitative reverse transcription (RT)-PCR was performed by monitoring in real-time the increase in fluorescence of the SYBR-GREEN dye on a TaqMan 7700 Sequence Detection System (Applied Biosystems).
To investigate the expression of mammalian NAD biosynthetic enzymes in the nervous system, we performed quantitative RT-PCR using RNA from mouse brain, retina, spinal code, and DRG at age of E14, P0, P7, P14 and P21. […] We also analyzed expression of NAD synthetic enzymes during the axonal degeneration caused by neurotoxin in cultured rat DRG neuron. […]

## NC(=O)c1ncn([C@@H]2O[C@H](CO)[C@@H](O)[C@H]2O)c1N [AICAR, 5-aminoimidazole-4-carboxamide-1-β-D-ribofuranoside, reference compound]
[1]
  axonal injury (axonal beading) after hypoxia: significantly reduced axonal injury after hypoxia
[2]
  proliferating cells (Ki67): 12.8%
[3]
  neurite outgrowth compared to serum starvation alone: increased neurite outgrowth
[4]
  cell survival: resistant to death for a prolonged period of time
[5]
  ACC phosphorylation: promoted increased phosphorylation
[6]
  AMPK phosphorylation: stimulated AMPK phosphorylation

## C=C(C)[C@H]1Cc2c(ccc3c2O[C@@H]2COc4cc(OC)c(OC)cc4[C@@H]2C3=O)O1 [rotenone]
[7]
  increase in expression of Nrk2: more than 6 folds
